Several values for one entry are separate records, joined by “and”; a condition that tells them apart may be missing. Equal entries are not always repeated. Strand notation (5' to 3'): a small letter for the sugar, then the base; units joined by * are phosphorothioate-linked, units joined directly phosphodiester-linked; [ ] holds rarer units or linkages, { } end groups; capitals alone tell only the bases. k = constrained ethyl (cEt); [5mC] = 5-methylcytosine; d = 2'-deoxy (DNA)

Data set [1] can be described thus: Tolerability in Balb/c mice, plasma chemistry markers (Example 11). Type of data set: in vivo. As to conditions: 50 mg/kg subcutaneously twice a week for four weeks. The method in brief: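 Male Balb/c mice aged 4-6 weeks received 50 mg/kg modified oligonucleotide subcutaneously twice weekly for four weeks (8 doses), with a PBS control group. Plasma chemistry markers were assessed after euthanasia on day 26, 24 hours after the final dose.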

A short description of data set [2]: Tolerability in CD-1 mice, plasma chemistry markers (Example 15). To be noted: male CD-1 mice, 50 mg/kg s.c. twice a week for four weeks (8 treatments), day 26. Type of data set: in vivo. As for the experimental part: CD-1 mice were treated with modified oligonucleotides selected from studies described above and evaluated for changes in the levels of various plasma chemistry markers.
Groups of four male CD-1 mice at 4-5 weeks of age (obtained from Charles River) were injected subcutaneously twice a week for four weeks (for a total of 8 treatments) with 50 mg/kg of modified oligonucleotides. One group of male CD-1 mice was injected with PBS. Mice were euthanized on day 26 post start of treatment (24 hrs following the final administration).

Data set [3] can be described thus: Tolerability in Balb/c mice, body and organ weights (Example 11). Type of data set: in vivo. As to conditions: 50 mg/kg subcutaneously twice a week for four weeks, end of study. The method in brief:
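Male Balb/c mice, 4-6 weeks old, dosed subcutaneously with 50 mg/kg modified oligonucleotide twice weekly for four weeks (8 doses), PBS group as control. Euthanized day 26, 24 hours after the last dose; body and organ weights recorded at study end.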

Data set [4] relates to Yap1 mRNA. Nature of the data set: Antisense inhibition of human Yap1 in SNU-449 cells by modified oligonucleotides, single dose (Example 5, RTS36584). Type of data set: cell-based. The method in brief:
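SNU-449 cells were given 2,000 nM oligonucleotide by free uptake for about 48 h. Yap1 mRNA was then measured by RT-qPCR with primer probe set RTS36584, normalized to total RNA by RIBOGREEN and expressed as percent of untreated control.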

Data set [5] relates to subcutaneous DEN carcinomas. Put plainly: Tumor volume in DEN-HCC model, in combination with a-PD1 antibody (Example 49). The data set is classed as in vivo, C57BL/6 mice. As to conditions: for Average Tumor Volume: DEN-HCC subcutaneous model, C57BL/6 mice. As for the experimental part: N-nitrosodiethylamine (DEN) is administered at 25 mg/kg into 15 day old C57/BL6 mice. Carcinomas form 6 months post injection. After formation, carcinomas were then dissected from the liver and passaged subcutaneously into C57BL/6 male mice at 4-6 weeks of age to establish a subcutaneous model. For this experiment, mice were passaged with P8 subcutaneously established DEN carcinomas, rendering P9 for the duration of the experiment. Subcutaneous carcinomas are found to form at 4-6 weeks post implantation. Modified oligonucleotides 792169 (control compound) and 715491 (YAP-1 targeting modified oligonucleotide) were treated subcutaneously into groups of 7-8 mice at 10 mg/kg/week 5 times a week for 11 weeks (total of 55 doses). The PBS-only treated group and the control group were treated 5 times a week for 4 weeks (total of 20 doses). α-PD1 antibody (BioXCell) was treated intraperitoneally at 10 mg/kg/week twice a week for 4 weeks (total of 8 doses). F.D. refers to mice that were sacrificed because their tumor volume became too large.

The nature of data set [6]: Tolerability in Balb/c mice, body and organ weights (Example 12). The data set is classed as in vivo. To be noted: male Balb/c mice, 50 mg/kg s.c. twice a week for four weeks (8 treatments), end of study (day 26).
Data set [7] in a line: Tolerability in Balb/c mice, plasma chemistry markers (Example 12). The data set is classed as in vivo. As to conditions: 50 mg/kg subcutaneously twice a week for four weeks.

In data set [1], “715487 (kA*kT*kT*dA*d[5mC]*dT*dT*d[5mC]*dA*dT*dA*dG*d[5mC]*kT*kT*kA) [compound 715487]” registered an ALT of 59 U/L, an AST of 81 U/L, a BUN of 16 mg/dL and a TBIL of 0.18 mg/dL. In data set [2], this substance returned an ALB of 1.9 g/dL, an ALT of 66 U/L and an AST of 113 U/L. In data set [3], the Kidney weight was 0.42 g, the Liver weight is 1.46 g, the Spleen weight is 0.15 g and the body weight turned out to be 27 g.
As for “958499 (kA*kT*kT*dA*dG*dA*dG*dT*dA*dT*dG*dT*dG*kG*k[5mC]*kA) [Compound 958499]”, the “YAP1 (% UTC)” value in data set [4] (Table 39, SNU-449 cells, 10,000 cells per well, free uptake, 2,000 nM oligonucleotide, approx. 48 hours, RTS36584, normalized to RIBOGREEN, Yap1 mRNA relative to untreated control) stood at 8 % UTC; in data set [4] (Table 40 (separate experiment), SNU-449 cells, 10,000 cells per well, free uptake, 2,000 nM oligonucleotide, approx. 48 hours, RTS36584, normalized to RIBOGREEN, Yap1 mRNA relative to untreated control) it was 15 % UTC; in data set [4] (Table 41, SNU-449 cells, 10,000 cells per well, free uptake, 2,000 nM modified oligonucleotide, approximately 48 hours, RTS36584, normalized to RIBOGREEN, Yap1 mRNA relative to untreated control cells), 14 % UTC; in data set [4] (Table 42 (separate experiment), SNU-449 cells, 10,000 cells per well, free uptake, 2,000 nM modified oligonucleotide, approximately 48 hours, RTS36584, normalized to RIBOGREEN, Yap1 mRNA relative to untreated control cells) it was 15 % UTC; in data set [4] (Table 43 experiment, SNU-449 cells, 10,000 cells per well, free uptake, 2,000 nM, approximately 48 hours, RTS36584, Yap1 mRNA normalized to RIBOGREEN, relative to untreated control cells) it was 14 % UTC; in data set [4] (Table 44 experiment, SNU-449 cells, 10,000 cells per well, free uptake, 2,000 nM, approximately 48 hours, RTS36584, Yap1 mRNA normalized to RIBOGREEN, relative to untreated control cells) it was 9 % UTC. The “YAP1 (% UTC)” value in data set [4] (Table 45, Yap1 mRNA as percent of untreated control, SNU-449 cells, single dose) was determined as 15 % UTC. Further, the “YAP1 (% UT)” value in data set [4] (Table 46, Yap1 mRNA as percent of untreated control, SNU-449 cells, single dose) came out at 16 % UT; in data set [4] (Table 48, Yap1 mRNA level relative to untreated control, modified oligonucleotides targeting SEQ ID NO.: 1 and 2), 15 % UT; in data set [4] (Table 49, Yap1 mRNA level relative to untreated control, modified oligonucleotides targeting SEQ ID NO.: 1 and 2), 13 % UT; in data set [4] (Table 50, Yap1 mRNA remaining as percent of untreated control (UT), SNU-449 cells, single dose), 12 % UT; in data set [4] (Table 51, Yap1 mRNA remaining as percent of untreated control (UT), SNU-449 cells, single dose), 9 % UT; in data set [4] (Table 52, Yap1 mRNA, modified oligonucleotides targeting SEQ ID NO: 1 and 2), 14 % UT. For the same substance, the “YAP1 (% UT)” value in data set [4] (Yap1 mRNA, percent of untreated control, modified oligonucleotides targeting SEQ ID NO: 1 and 2, Table 47) is 17 % UT and 10 % UT.
As for “CGCCGATAAGGTACAC (cEt gapmer, phosphorothioate backbone, further chemistry not given here) [ION 792169, reference compound]”, the “Average Tumor Volume” value in data set [5] (day 1 on treatment) stood at 354 mm3; in data set [5] (day 5 on treatment) it was 376 mm3; in data set [5] (day 8 on treatment), 414 mm3; in data set [5] (day 11 on treatment), 523 mm3; in data set [5] (day 15 on treatment), 604 mm3; in data set [5] (day 18 on treatment) it was 633 mm3. The “Average Tumor Volume” value was 773 mm3 in data set [5] (day 23 on treatment); 864 mm3 in data set [5] (day 25 on treatment); 802 mm3 in data set [5] (day 28 on treatment); “F.D” in data set [5] (day 31 on treatment); “F.D” in data set [5] (day 35 on treatment); “F.D” in data set [5] (day 38 on treatment). For the same substance, the “Average Tumor Volume” value in data set [5] (day 43 on treatment), in data set [5] (day 45 on treatment), in data set [5] (day 49 on treatment), in data set [5] (day 54 on treatment), in data set [5] (day 58 on treatment) and in data set [5] (day 61 on treatment) was “F.D” each time. Further, the “Average Tumor Volume” value in data set [5] (day 65 on treatment), in data set [5] (day 68 on treatment), in data set [5] (day 72 on treatment), in data set [5] (day 75 on treatment) and in data set [5] (day 79 on treatment) was “F.D” in each case. For the same substance, the “tumor volume (outcome in words)” value in data set [5] (subcutaneous DEN carcinomas in C57BL/6 male mice, 10 mg/kg/week, oligonucleotide subcutaneously, antibody intraperitoneally) is reported as “sacrificed before the end of the experiment because their tumor volume became too large”.
As to “958499 (ATTAGAGTATGTGGCA; 3-10-3 cEt gapmer, further chemistry not given here) [compound 958499]”, in data set [6], the Kidney weight is 0.32 g, the Liver weight came out at 1.44 g, the Spleen weight is given as 0.14 g and the body weight was 23 g. Also, in data set [7], the ALT is listed as 142 U/L, the AST is on record as 146 U/L, the BUN stood at 26 mg/dL and the TBIL amounted to 0.17 mg/dL.
